Laboratory results from patent publication US9402821B2, “Methods and pharmaceutical compositions for treatment of cystic fibrosis” (INSERM (Institut National de la sante et de la Recherche …, priority 2012, dated 2016).

Molecular target: T1, ENaC (Homo sapiens, UniProt P37088+P51168+P51170)
T1 construct: endogenous in cells; host or cells: primary human nasal epithelial cells (HNEC)
T1 sequence (P37088 1-669): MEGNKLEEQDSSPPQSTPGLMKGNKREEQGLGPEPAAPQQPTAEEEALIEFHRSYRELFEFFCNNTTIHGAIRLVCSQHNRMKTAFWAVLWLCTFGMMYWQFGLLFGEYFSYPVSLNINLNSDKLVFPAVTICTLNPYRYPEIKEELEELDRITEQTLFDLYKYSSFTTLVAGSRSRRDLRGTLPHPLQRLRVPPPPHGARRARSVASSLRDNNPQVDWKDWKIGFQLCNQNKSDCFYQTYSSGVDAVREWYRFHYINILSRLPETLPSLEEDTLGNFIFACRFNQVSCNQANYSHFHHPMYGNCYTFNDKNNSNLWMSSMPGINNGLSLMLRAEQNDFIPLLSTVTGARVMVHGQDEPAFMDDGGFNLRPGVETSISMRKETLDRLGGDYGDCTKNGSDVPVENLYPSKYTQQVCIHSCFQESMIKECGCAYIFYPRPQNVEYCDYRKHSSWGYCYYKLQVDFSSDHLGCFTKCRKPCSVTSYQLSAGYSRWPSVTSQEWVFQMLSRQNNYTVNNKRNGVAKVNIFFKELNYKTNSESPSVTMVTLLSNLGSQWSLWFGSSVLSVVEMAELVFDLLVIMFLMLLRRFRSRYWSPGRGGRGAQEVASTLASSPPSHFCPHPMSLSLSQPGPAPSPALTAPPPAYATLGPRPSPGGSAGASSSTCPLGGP
T1 sequence (P51168 1-640): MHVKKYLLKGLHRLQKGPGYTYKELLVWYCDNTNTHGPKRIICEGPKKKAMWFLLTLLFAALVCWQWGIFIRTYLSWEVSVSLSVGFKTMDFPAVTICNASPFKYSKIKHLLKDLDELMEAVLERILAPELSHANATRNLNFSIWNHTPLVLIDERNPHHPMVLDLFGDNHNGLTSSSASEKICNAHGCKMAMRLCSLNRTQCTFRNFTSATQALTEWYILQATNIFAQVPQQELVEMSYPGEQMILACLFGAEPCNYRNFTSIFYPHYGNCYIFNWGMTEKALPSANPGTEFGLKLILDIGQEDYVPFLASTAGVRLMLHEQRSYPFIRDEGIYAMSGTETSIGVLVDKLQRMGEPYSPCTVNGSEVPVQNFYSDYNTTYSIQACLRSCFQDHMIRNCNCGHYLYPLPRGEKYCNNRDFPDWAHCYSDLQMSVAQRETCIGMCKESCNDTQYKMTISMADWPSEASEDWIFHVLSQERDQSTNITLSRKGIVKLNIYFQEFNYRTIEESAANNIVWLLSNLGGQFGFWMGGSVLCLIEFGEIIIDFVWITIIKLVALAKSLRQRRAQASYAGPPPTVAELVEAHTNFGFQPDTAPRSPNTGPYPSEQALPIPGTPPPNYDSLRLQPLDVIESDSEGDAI
T1 sequence (P51170 1-649): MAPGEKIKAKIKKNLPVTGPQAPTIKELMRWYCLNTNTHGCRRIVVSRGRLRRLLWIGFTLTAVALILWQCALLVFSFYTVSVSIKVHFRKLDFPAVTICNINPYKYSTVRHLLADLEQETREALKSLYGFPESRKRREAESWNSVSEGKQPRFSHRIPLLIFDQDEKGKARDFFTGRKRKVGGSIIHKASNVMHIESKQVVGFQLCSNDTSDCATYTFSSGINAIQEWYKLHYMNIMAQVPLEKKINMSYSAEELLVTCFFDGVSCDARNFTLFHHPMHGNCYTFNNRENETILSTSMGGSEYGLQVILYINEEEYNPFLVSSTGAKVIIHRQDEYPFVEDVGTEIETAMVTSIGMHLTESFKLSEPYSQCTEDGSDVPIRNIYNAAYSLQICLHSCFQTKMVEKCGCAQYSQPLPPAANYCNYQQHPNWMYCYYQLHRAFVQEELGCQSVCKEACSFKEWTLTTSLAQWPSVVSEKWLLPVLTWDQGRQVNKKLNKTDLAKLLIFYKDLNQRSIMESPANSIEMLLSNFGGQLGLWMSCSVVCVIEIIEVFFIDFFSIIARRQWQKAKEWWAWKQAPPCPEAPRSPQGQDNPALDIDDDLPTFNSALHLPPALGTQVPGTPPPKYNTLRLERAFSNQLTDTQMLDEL
Experiment: Short circuit current, amiloride sensitive transport in HNEC
Assay type: cell-based
Conditions: primary HNEC; 500 μM basolateral, 2 h
Experimental: B. Chloride activity in HeLa Wt cells was measured by MQAE assay, after 3 h of treatment by NSAID (500 μM) or diluent. CFTR activity was expressed in rate of UFA/sec, calculated by difference between ((Ft−F0)/t) with CFTR induction and ((Ft−F0)/t) without CFTR induction. […] C. Primary culture of human nasal epithelial cell (HNEC) grown on Snapwell filters (air-liquid interface) were exposed basolaterally to sulindac (500 μM) or vehicle for 2 h and immediately mounted into a voltage-clamp system to bioelectric measurements. Short circuit current was measured with addition of amiloride to evaluated amiloride sensitive transport or with forskolin and IBMX for induced cAMP-dependent Cl secretion.
Two cell models were used to the interface air-liquid model for ionic efflux assays by short circuit current and to dose the basolateral IL-8 secretion. Calu-3 are derived from lung adenocarcinoma and are able to polarized and express a high rate of endogenous CFTR. […] Transepithelial resistance and transepithelial potential difference were measured every 3 days using a microvoltmeter (World Precision Instruments, Astonbury, UK).
Cells were grown at 37° C. in a 5% CO2 incubator in DMEM with Glutamax (Invitrogen) and 10% fetal bovine serum (SVF). […] The effects of treatment in HNEC cultures on snapwell inserts were evaluated between days 10 and 16. […]

## CC1=C(CC(=O)O)c2cc(F)ccc2/C1=C\c1ccc([S+](C)[O-])cc1 (stereo not shown) [sulindac, (Z)-5-fluoro-2-methyl-1-[p-(methylsulfinyl)benzylidene]-indene-3-acetic acid]
  ENaC activity (amiloride sensitive short circuit current): not induced modification of ENaC activity
